In article PMC10593608, “The catalytic role of glutathione transferases in heterologous anthocyanin biosynthesis” (Nature Catalysis, 2023):

Columns and labels:
[1] = target: T1, AtTT19 (Arabidopsis thaliana, UniProt Q9FE46); test: cyanidin formation by clarified E. coli lysate expressing the GST; format: biochemical; conditions: 20 μM GSH, 100 mM MOPSO pH 6.2, 30 °C
T1 construct: gene GSTF12; expressed in E. coli from pET-28b-based plasmid, clarified lysate
T1 sequence (Q9FE46 1-214): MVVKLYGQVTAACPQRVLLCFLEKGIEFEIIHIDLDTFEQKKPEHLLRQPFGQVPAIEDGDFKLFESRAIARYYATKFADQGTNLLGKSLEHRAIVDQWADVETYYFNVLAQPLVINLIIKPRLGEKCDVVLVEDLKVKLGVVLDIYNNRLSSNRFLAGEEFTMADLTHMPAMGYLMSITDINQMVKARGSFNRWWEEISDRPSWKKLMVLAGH

[2] = target: T2, ZmBZ2 (Zea mays, UniProt P50472); test: GSH-transferase assay, A340nm, clarified E. coli lysate; format: biochemical; conditions: 1 mM CDNB, 1 mM GSH, 50 mM Tris pH 7.5, 30 °C
T2 construct: gene BZ2; expressed in E. coli from pET-28b-based plasmid, clarified lysate
T2 sequence (P50472 1-236): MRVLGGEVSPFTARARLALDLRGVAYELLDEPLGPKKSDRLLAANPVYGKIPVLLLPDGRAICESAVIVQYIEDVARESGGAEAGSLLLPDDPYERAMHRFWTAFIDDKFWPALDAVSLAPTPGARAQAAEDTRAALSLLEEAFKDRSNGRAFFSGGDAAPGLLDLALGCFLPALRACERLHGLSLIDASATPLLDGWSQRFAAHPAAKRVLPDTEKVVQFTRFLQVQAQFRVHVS

[3] = target: T3, AtGSTF2 (Arabidopsis thaliana, UniProt P46422); test: as above; format: biochemical; conditions: 1 mM CDNB, 1 mM GSH, 50 mM Tris pH 7.5, 30 °C
T3 construct: gene GSTF2; expressed in E. coli from pET-28b-based plasmid, clarified lysate
T3 sequence (P46422 1-212): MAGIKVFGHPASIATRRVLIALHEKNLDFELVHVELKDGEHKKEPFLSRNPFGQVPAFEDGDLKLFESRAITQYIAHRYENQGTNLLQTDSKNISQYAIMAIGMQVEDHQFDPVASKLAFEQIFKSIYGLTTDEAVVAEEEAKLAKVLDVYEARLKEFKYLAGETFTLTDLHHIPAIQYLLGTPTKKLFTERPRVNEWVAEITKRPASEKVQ

[4] = target: T4, PhAN9 (Petunia x hybrida, UniProt O24261); test: as above; format: biochemical; conditions: 1 mM CDNB, 1 mM GSH, 50 mM Tris pH 7.5, 30 °C
T4 construct: expressed in E. coli from pET-28b-based plasmid, clarified lysate
T4 sequence (O24261 1-232): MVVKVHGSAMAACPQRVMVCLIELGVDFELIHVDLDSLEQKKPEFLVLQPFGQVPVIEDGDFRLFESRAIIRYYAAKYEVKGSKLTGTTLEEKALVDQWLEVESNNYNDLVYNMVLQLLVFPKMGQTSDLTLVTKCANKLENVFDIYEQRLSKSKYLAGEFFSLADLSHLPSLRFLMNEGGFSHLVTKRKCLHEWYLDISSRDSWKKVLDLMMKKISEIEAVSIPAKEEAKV

[5] = target: T5, VvGST2 (Vitis vinifera, UniProt A0T2X7); test: as above; format: biochemical; conditions: 1 mM CDNB, 1 mM GSH, 50 mM Tris pH 7.5, 30 °C
T5 construct: gene GST2; expressed in E. coli from pET-28b-based plasmid, clarified lysate
T5 sequence (A0T2X7 1-214): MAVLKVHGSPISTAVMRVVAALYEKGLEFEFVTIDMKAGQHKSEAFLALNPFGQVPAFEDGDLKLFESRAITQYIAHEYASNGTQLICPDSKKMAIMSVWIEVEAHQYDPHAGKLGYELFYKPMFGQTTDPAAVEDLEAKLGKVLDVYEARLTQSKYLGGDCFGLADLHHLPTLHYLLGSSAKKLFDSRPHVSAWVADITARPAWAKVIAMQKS

[6] = target: T1, AtTT19; test: as above; format: biochemical; conditions: 1 mM CDNB, 1 mM GSH, 50 mM Tris pH 7.5, 30 °C
[7] = target: T6, PtGSTF8 (Populus trichocarpa, UniProt B9MWW0); test: X-ray crystal structure, […] Å; format: binding; conditions: ternary complex with GSH; H-site; substrate analogue
T6 construct: gene POPTR_017G138800; full length, expressed in E. coli from pET-28b-based pANT35, GSTrap purified, apo (GSH removed with DTT)
T6 sequence (B9MWW0 1-214): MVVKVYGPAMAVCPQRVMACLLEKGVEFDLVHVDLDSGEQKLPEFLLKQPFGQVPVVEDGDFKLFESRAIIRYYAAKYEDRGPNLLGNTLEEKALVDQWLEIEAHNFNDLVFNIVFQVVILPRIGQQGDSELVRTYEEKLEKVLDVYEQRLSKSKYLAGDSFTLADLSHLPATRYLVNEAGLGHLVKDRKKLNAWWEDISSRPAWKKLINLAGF

[8] = substrate: Oc1cc(O)c2c(c1)O[C@H](c1ccc(O)c(O)c1)C(O)(O)[C@H]2O; test: cyanidin formation at A580nm, 96-well plate, Michaelis-Menten; format: biochemical, Populus trichocarpa; conditions: GSH cofactor, 100 mM MOPSO pH 6.2, 30 °C, ascorbate, Fe(II), ultrafiltered substrate, apparent

## Oc1cc(O)c2c(c1)O[C@H](c1ccc(O)c(O)c1)C(O)(O)[C@H]2O [compound 4]
[1]
  cyanidin formation by clarified E. coli lysate expressing the GST: arGSTs from maize (ZmBZ2), arabidopsis (AtTT19) and grapevine (VvGST4)

## O=[N+]([O-])c1ccc(Cl)c([N+](=O)[O-])c1 [compound 5, 1-chloro-2,4-dinitrobenzene]
[2]
  GSH-transferase assay, A340nm, clarified E. coli lysate: all investigated GSTs were confirmed to be solubly and functionally produced
[3]
  GSH-transferase assay, A340nm, clarified E. coli lysate: all investigated GSTs were confirmed to be solubly and functionally produced
[4]
  GSH-transferase assay, A340nm, clarified E. coli lysate: all investigated GSTs were confirmed to be solubly and functionally produced
[5]
  GSH-transferase assay, A340nm, clarified E. coli lysate: all investigated GSTs were confirmed to be solubly and functionally produced
[6]
  GSH-transferase assay, A340nm, clarified E. coli lysate: all investigated GSTs were confirmed to be solubly and functionally produced

## Oc1cc(O)c2c(c1)O[C@@H](c1ccc(O)c(O)c1)[C@H](O)C2 [compound 12, (−)-catechin]
[7]
  X-ray crystal structure, 1.09 Å: crystal structure of PtGSTF8 as a ternary complex with GSH and the substrate analogue (−)-catechin

B1: PtGSTF8 (Populus trichocarpa) (protein)
chain: T6 sequence (B9MWW0 1-214)
notes: full length, expressed in E. coli from pET-28b-based pANT35, GSTrap purified, apo (GSH removed with DTT)
[8]
  Km: 147 ± 8 µM
  kcat: 0.118 s⁻¹
